Results from PubChem BioAssay AID2060486 (Molecular Pharmacology Branch, DTP, NCI, 2025).

Tested on: IGROV1 complex spheroids (HUVEC, MSC), viability % test/control
Test: Anticancer human tumor IGROV1 cell line growth inhibition [GQUAD];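 note: spheroids exposed to compounds for 7 days before readout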
Conditions: for IC50: curve of first compound; for viability, T/C: stronger effect = lower value
Source text: DNA G-quadruplex Stabilizer Agents in Combinations in Complex Spheroids
A high-throughput screen of multi-cell type tumor spheroids was designed to identify active combinations of DNA G-quadruplex stabilizer agents and targeted small molecules. Complex spheroids include a stromal component modeled by human endothelial cells (HUVEC) and fibroblasts modeled by human mesenchymal stem cells (MSCs). The concentration ranges selected for each drug and investigational agent were based upon clinically achievable concentrations if the clinical Cmax of the agent was known.
Compounds. The drugs and investigational agents: pidnarulex (CX-5461; NSC782164), APTO-253 (NSC789042), BRACO-19 (NSC847499), peposertib (NSC802822), ceralasertib (NSC780249), elimusertib (NSC800525), camonsertib (NSC841442), AZD-1390 (NSC803789), olaparib (NSC753686), talazoparib (NSC767125), ART-558 (NSC835418), sotorasib (NSC818433), MRTX-1133 (NSC836407), SN-38 (NSC673596), topotecan (NSC609699), etoposide (NSC141540), doxorubicin (NSC123127), gemcitabine (NSC613327), 5-fluorouracil (NSC19893), paclitaxel (NSC125973), vemurafenib (NSC761431), panobinostat (NSC761190), R-306465 (JNJ-16241199; NSC773264), adavosertib (NSC754352), TP-3654 (NSC805149), carboplatin (NSC241240), KSQ-4279 (NSC840948), and staurosporine (NSC755774) were obtained from the National Cancer Institute (NCI) Developmental Therapeutics Program Chemical Repository (34). The FDA-approved anticancer drug set is available from the NCI Developmental Therapeutics Program. […] The stock solutions were prepared in dimethyl sulfoxide (DMSO, Sigma-Aldrich, St. Louis, MO, cat. D2650) at 800-fold the tested concentration and stored at -70 degrees C prior to their use. All drugs and investigational agents were tested over a range starting from a high concentration at or near the clinical Cmax and decreasing in half-log increments. If the clinical Cmax for an agent had not been determined, the highest concentration tested was 10 microM.
2.3 Cell Culture. All cells were maintained in an incubator at 37 degrees C and 5% CO2 with 95% humidity. The PDC lines were cultured according to standard operating procedures established by the NCI PDMR. All PDCs were thawed and cultured in Matrigel-coated flasks prepared with a working solution of 1X Ham's F-12 nutrient mix, without supplementation (Invitrogen, cat. 11765054), 100 U/mL penicillin-streptomycin (Invitrogen, cat. 15140122), and 2.5% Matrigel (Corning Inc., cat. 354248) for the first three passages. The 857933-349-R-J2-PDC line was cultured in 6C/Colon 1B media, which includes advanced DMEM/F-12 (Thermo Fisher Scientific, cat. 12634028), 10 mM HEPES (Thermo Fisher Scientific, cat. 15630080), 1X GlutaMAX supplement (Thermo Fisher Scientific, cat. 35050061), 0.1 mg/mL primocin (InvivoGen, cat. ant-pm-2), 10% defined fetal bovine serum, heat inactivated (HyClone Laboratories Inc., cat. SH30070.03HI), 50% L-WRN conditioned media (ATCC, cat. CRL-3276), 1.25 mM N-Acetyl-L-cysteine (Sigma-Aldrich, cat. A9165), 10 mM nicotinamide (Sigma-Aldrich, cat. N0636), 1X B-27 supplement (Thermo Fisher Scientific, cat. 17504044), 1X N-2 supplement (Thermo Fisher Scientific, cat. 17502048), 10 microM Y-27632 dihydrochloride (Tocris Bioscience, cat. 1254), and 50 ng/mL human EGF recombinant protein (Thermo Fisher Scientific, cat. PHG0311). The 485176-168-R4-J1-PDC line was cultured in Panc media, which includes all 6C/Colon 1B media components plus 100 ng/mL human FGF-10 (Thermo Fisher Scientific, cat. 100-26), 500 nM SB-431542 (Selleckchem, cat. S1067), and gastrin (Tocris, cat. 3006).
[…]

Cc1cccc(N(C)C(=O)C2C(O)CCN2c2nc(C)cc(C(F)(F)F)c2C#N)c1 (configuration not stated) + CN(C)c1ccc(Nc2c3ccc(NC(=O)CCN4CCCC4)cc3nc3cc(NC(=O)CCN4CCCC4)ccc23)cc1
IC50 (second compound 0.0316 µM): > 10 µM
IC50 (second compound 0.1 µM): > 10 µM
IC50 (second compound 0.316 µM): > 10 µM
IC50 (second compound 1 µM): > 10 µM
IC50 (second compound 3.16 µM): 5.48 µM
IC50 (second compound 10 µM): < 0.0316 µM
viability, T/C (second compound 0.0316 µM, first compound 0.0316 µM): 101%
viability, T/C (second compound 0.0316 µM, first compound 0.1 µM): 75.8%
viability, T/C (second compound 0.0316 µM, first compound 0.316 µM): 85.2%
viability, T/C (second compound 0.0316 µM, first compound 1 µM): 77.5%
viability, T/C (second compound 0.0316 µM, first compound 3.16 µM): 92.5%
viability, T/C (second compound 0.0316 µM, first compound 10 µM): 97.1%
viability, T/C (second compound 0.1 µM, first compound 0.0316 µM): 93.9%
viability, T/C (second compound 0.1 µM, first compound 0.1 µM): 83.2%
viability, T/C (second compound 0.1 µM, first compound 0.316 µM): 86.9%
viability, T/C (second compound 0.1 µM, first compound 1 µM): 79.9%
viability, T/C (second compound 0.1 µM, first compound 3.16 µM): 95.5%
viability, T/C (second compound 0.1 µM, first compound 10 µM): 93.1%
viability, T/C (second compound 0.316 µM, first compound 0.0316 µM): 99.1%
viability, T/C (second compound 0.316 µM, first compound 0.1 µM): 79.5%
viability, T/C (second compound 0.316 µM, first compound 0.316 µM): 88.5%
viability, T/C (second compound 0.316 µM, first compound 1 µM): 70.6%
viability, T/C (second compound 0.316 µM, first compound 3.16 µM): 88.9%
viability, T/C (second compound 0.316 µM, first compound 10 µM): 96.2%
viability, T/C (second compound 1 µM, first compound 0.0316 µM): 86.2%
viability, T/C (second compound 1 µM, first compound 0.1 µM): 90.6%
viability, T/C (second compound 1 µM, first compound 0.316 µM): 71%
viability, T/C (second compound 1 µM, first compound 1 µM): 84.5%
viability, T/C (second compound 1 µM, first compound 3.16 µM): 89.3%
viability, T/C (second compound 1 µM, first compound 10 µM): 84.7%
viability, T/C (second compound 3.16 µM, first compound 0.0316 µM): 83.1%
viability, T/C (second compound 3.16 µM, first compound 0.1 µM): 85.2%
viability, T/C (second compound 3.16 µM, first compound 0.316 µM): 82.2%
viability, T/C (second compound 3.16 µM, first compound 1 µM): 64%
viability, T/C (second compound 3.16 µM, first compound 3.16 µM): 71%
viability, T/C (second compound 3.16 µM, first compound 10 µM): 33.9%
viability, T/C (second compound 10 µM, first compound 0.0316 µM): 43.5%
viability, T/C (second compound 10 µM, first compound 0.1 µM): 50.3%
viability, T/C (second compound 10 µM, first compound 0.316 µM): 34.3%
viability, T/C (second compound 10 µM, first compound 1 µM): 35%
viability, T/C (second compound 10 µM, first compound 3.16 µM): 25.7%
viability, T/C (second compound 10 µM, first compound 10 µM): 11.7%
